Data as given in article PMC8069214, “Synthesis, Biological Evaluation, and Molecular Modeling of Aza-Crown Ethers” (Molecules, 2021).
Like-named read-outs stand apart in the source and are kept apart here.

Key:
Format in all cases: cell-based
human neutrophils [1] = assay: Ca2+ mobilization assay, direct effect of compounds on [Ca2+]i; details: Neutrophil; for Emax: % of the response induced by 5 nM fMLF, read-out: Efficacy (converted)
Text: We screened 24 aza- and diaza-crown ethers with adamantyl, adamantylalkyl, aminomethylbenzoyl, and ε-aminocaproyl substituents for their Ca^2+ ionophore effects in human neutrophils. To monitor cytoplasmic Ca^2+ levels, we used the fluorescent Ca^2+ indicator Fluo-4, which is a dynamic single-wavelength fluorescent Ca^2+ indicator. Increases in fluorescence intensity (λex = 485 nm, λem = 538 nm) reflect the rise in cytoplasmic Ca^2+ concentrations ([Ca^2+]i; see Materials and Methods).
(§1) Changes in neutrophil intracellular Ca^2+ concentrations ([Ca^2+]i) were measured with a FlexStation 3 scanning fluorometer (Molecular Devices, Sunnyvale, CA, USA). Briefly, human neutrophils were suspended in HBSS^−, loaded with Fluo-4AM at a final concentration of 1.25 μg/mL, and incubated for 30 min in the dark at 37 °C. After dye loading, the cells were washed with HBSS^−, resuspended in HBSS^+, separated into aliquots, and loaded into the wells of flat-bottom, half-area well black microtiter plates (2 × 10^5 cells/well). To assess the direct effects of test compounds on Ca^2+ flux, the compounds were added to the wells (final concentration of DMSO was 1%), and changes in fluorescence were monitored (λex = 485 nm, λem = 538 nm) every 5 s for 240 s at room temperature after addition of the test compound. To evaluate inhibitory effects of the compounds on FPR1/FPR2-dependent Ca^2+ flux, the compounds were added to the wells (final concentration of DMSO was 1%) with cells (human neutrophils or FPR1/FPR2 HL60 cells). The samples were preincubated for 10 min, followed by addition of 5 nM fMLF (for human neutrophils or FPR1-HL60 cells) or 5 nM WKYMVM (for FPR2-HL60 cells). The maximum change in fluorescence, expressed in arbitrary units over baseline, was used to determine the agonist response. Responses were normalized to the response induced by 5 nM fMLF or 5 nM WKYMVM, which were assigned as 100%. Curve fitting (at least five or six points) and calculation of median effective concentration values (EC50 or IC50) were performed by nonlinear regression analysis of the dose–response curves generated using Prism 7 (GraphPad Software, Inc., San Diego, CA, USA). Efficacy was determined by comparing individual responses activated by the test compounds to that induced by a positive control (5 nM fMLF), which was assigned a value of 100%.

FPR1 = target: T1, FPR1 (Homo sapiens, UniProt P21462); assay: Inhibition of fMLF-induced [Ca2+]i flux in FPR1-HL60 cells; details: 10 min preincubation, 5 nM fMLF; N.A. = no activity at < 50 µM; read-out: FPR1/FPR2 Agonist-Induced Δ[Ca^2+]i FPR1-HL60 IC50
T1 construct: expressed in transfected cells
T1 sequence (P21462 1-350): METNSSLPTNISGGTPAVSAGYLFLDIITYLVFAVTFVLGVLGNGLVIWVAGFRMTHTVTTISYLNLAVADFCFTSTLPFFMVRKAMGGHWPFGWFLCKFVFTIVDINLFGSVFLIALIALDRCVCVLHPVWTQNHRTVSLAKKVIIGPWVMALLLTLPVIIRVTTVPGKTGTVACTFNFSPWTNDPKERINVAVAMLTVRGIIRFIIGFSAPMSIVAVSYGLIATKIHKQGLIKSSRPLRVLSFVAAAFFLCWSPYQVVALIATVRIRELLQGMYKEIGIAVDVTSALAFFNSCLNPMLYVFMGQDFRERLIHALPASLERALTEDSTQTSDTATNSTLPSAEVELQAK
Protocol: (§2) Since these compounds elevated neutrophil [Ca^2+]i, and cytosolic Ca^2+ flux is a key component of neutrophil activation, we evaluated if they could alter neutrophil activation by FPR1 or FPR2 agonists. Neutrophils and FPR-transfected HL60 cells were preincubated for 10 min with crown ether compounds, and [Ca^2+]i flux was stimulated with either an FPR1 agonist (fMLF for human neutrophils and FPR1-HL60 cells) or an FPR2 agonist (WKYMVM for FPR2-HL60 cells).
(§3) Human promyelocytic leukemia HL60 cells stably transfected with FPR1 (FPR1-HL60 cells) or FPR2 (FPR2-HL60 cells) (kind gifts from Dr. Marie-Josephe Rabiet, INSERM, Grenoble, France) were cultured in RPMI 1640 medium supplemented with 10% heat-inactivated fetal calf serum, 10 mM HEPES, 100 μg/mL streptomycin, 100 U/mL penicillin, and G418 (1 mg/mL). Although stable cell lines are cultured under G418 selection pressure, G418 may affect some assays, so it was removed in the last round of culture before assays were performed.
as §1

FPR2 = target: T2, FPR2 (Homo sapiens, UniProt P25090); assay: Inhibition of WKYMVM-induced [Ca2+]i flux in FPR2-HL60 cells; details: 10 min preincubation, 5 nM WKYMVM; N.A. = no activity at < 50 µM; read-out: FPR1/FPR2 Agonist-Induced Δ[Ca^2+]i FPR2-HL60 IC50
T2 construct: expressed in transfected cells
T2 sequence (P25090 1-351): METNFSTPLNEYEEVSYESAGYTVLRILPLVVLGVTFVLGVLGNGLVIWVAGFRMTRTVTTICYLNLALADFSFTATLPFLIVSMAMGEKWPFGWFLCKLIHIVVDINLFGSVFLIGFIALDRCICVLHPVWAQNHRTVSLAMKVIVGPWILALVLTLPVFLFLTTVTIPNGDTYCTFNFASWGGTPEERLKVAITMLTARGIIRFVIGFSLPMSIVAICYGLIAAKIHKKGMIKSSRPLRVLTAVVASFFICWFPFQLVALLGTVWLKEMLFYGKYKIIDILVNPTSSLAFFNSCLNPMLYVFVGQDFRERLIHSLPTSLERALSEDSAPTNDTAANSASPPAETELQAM
Protocol: as §2, §3, §1

human neutrophils [2] = assay: fMLF-induced neutrophil chemotaxis (ChemoTx chambers); details: 1 h, 1 nM fMLF, 60 min migration
Protocol: Human neutrophils were suspended in HBSS^+ containing 2% (v/v) heat-inactivated fetal bovine serum (2 × 10^6 cells/mL), and effects of the compounds on fMLF-induced chemotaxis was analyzed in 96-well ChemoTx chemotaxis chambers (Neuroprobe, Gaithersburg, MD, USA). In brief, neutrophils were preincubated with the indicated concentrations of the test compounds or DMSO for 20 min at room temperature and added to the upper wells of the ChemoTx chemotaxis chambers. The lower wells were loaded with 30 µL of HBSS^+ containing 2% (v/v) fetal bovine serum and the indicated concentrations of test sample plus 1 nM fMLF, DMSO (negative control), or 1 nM fMLF as a positive control. Neutrophils were added to the upper wells and allowed to migrate through the 5.0-µm pore polycarbonate membrane filter for 60 min at 37 °C and 5% CO2. The number of migrated cells was determined by measuring ATP in lysates of transmigrated cells using a luminescence-based assay (CellTiter-Glo; Promega, Madison, WI, USA), and luminescence measurements were converted to absolute cell numbers by comparison of the values with standard curves obtained with known numbers of neutrophils. Curve fitting (at least eight to nine points) and calculation of median effective concentration values (IC50) were performed by nonlinear regression analysis of the dose-response curves generated using Prism 5.

[3] = Homo sapiens, elevation of [Ca2+]i, Fluo-4, N.A. = no activity was found at concentration < 50 µM, read-out: EC50, effect on [Ca^2+]i flux in human neutrophils
[4] = reciprocal of EC50 in human neutrophils, inactive compounds assigned zero, read-out: 1/[EC50] (converted)

EC50 (human neutrophils [1]; [3])	EC50 (human neutrophils [1]; [4])	IC50 (FPR1)	IC50 (FPR2)	IC50 (human neutrophils [2])	SMILES	Emax (human neutrophils [1]; Homo sapiens)
6.9 ± 2.1 µM	6.9 µM	16.5 ± 3.2 µM	32.6 ± 4.5 µM	5.8 ± 1.4 µM	O=C(N1CCOCCOCCN(C(=O)C23CC4CC(CC(C4)C2)C3)CCOCC1)C12CC3CC(CC(C3)C1)C2 [Compound 13, N,N’-bis[1-oxo-1-(1-adamantyl)methyl]-4,10-diaza-15-crown-5]	25 to 50%
9.5 ± 2.7 µM	9.5 µM	11.6 ± 2.1 µM	8.3 ± 2.3 µM	6.1 ± 2.1 µM	O=C(N1CCOCCOCCOCCN(C(=O)C23CC4CC(CC(C4)C2)C3)CCOCC1)C12CC3CC(CC(C3)C1)C2 [Compound 14, N,N’-bis[1-oxo-1-(1-adamantyl)methyl]-4,10-diaza-18-crown-6]	25 to 50%
4.7 ± 1.5 µM	4.7 µM	4.8 ± 0.9 µM	7.2 ± 1.7 µM	5.7 ± 0.2 µM	O=C(CC12CC3CC(CC(C3)C1)C2)N1CCOCCOCCN(C(=O)CC23CC4CC(CC(C4)C2)C3)CCOCC1 [Compound 15, N,N’-bis[2-(1-adamantyl)acetyl]-4,10-diaza-15-crown-5]	110%
15.9 ± 2.5 µM	15.9 µM	3.7 ± 0.7 µM	7.6 ± 1.9 µM	5.2 ± 1.7 µM	O=C(CC12CC3CC(CC(C3)C1)C2)N1CCOCCOCCN(C(=O)CC23CC4CC(CC(C4)C2)C3)CCOCCOCC1 [Compound 17, N,N’-bis[2-(1-adamantyl)acetyl]-4,13-diaza-18-crown-6]	–
